From ChEMBL document CHEMBL6153105, “MDN-0057 to MDN-0060, a Family of Broad-Spectrum Antibiotics against Gram-Negative Pathogens Produced by Ophiosphaerella korrae” (2025)
Values after ≈ are worked out from the molar mass of the structure shown.

Assays:
Type in all cases: functional
[1] = tested on: Pseudomonas aeruginosa; assay: Antibacterial activity against Pseudomonas aeruginosa ATCC 27853 incubated for 20 hrs
[2] = tested on: Acinetobacter baumannii; assay: Antibacterial activity against Acinetobacter baumannii MB5973 incubated for 20 hrs
[3] = tested on: Escherichia coli; assay: Antibacterial activity against Escherichia coli ATCC 25922 incubated for 20 hrs

Row | Compound | MIC [1] [µg/mL] | MIC [2] [µg/mL] | MIC [3] [µg/mL]
1 | [C-]#[N+]C(=C)[C@](Cc1ccc(OC)cc1)([N+]#[C-])[C@H]1C[C@@H](O)CC[C@@H]1OC(C)=O | 16 (≈ 43.4 µM) | 0.5 (≈ 1.36 µM) | 
2 | [C-]#[N+]C(=C)[C@](Cc1ccc(OC)cc1)([N+]#[C-])[C@H]1C[C@@H](O)CC[C@@H]1OC(=O)CO | 2 (≈ 5.2 µM) | 0.25 (≈ 0.65 µM) | 16 (≈ 41.6 µM)
3 | [C-]#[N+]C(=C)[C@](Cc1ccc(OC)cc1)([N+]#[C-])[C@H]1C[C@@H](O)C=C[C@@H]1OC(=O)CO | 64 (≈ 167 µM) | 0.25 (≈ 0.654 µM) | 16 (≈ 41.8 µM)
4 | [C-]#[N+]C(=C)[C@](Cc1ccc(OC)cc1)([N+]#[C-])[C@H]1C[C@@H](O)C=C[C@@H]1OC(C)=O | 32 (≈ 87.3 µM) | 1 (≈ 2.73 µM) | 
5 | C[C@H]1[C@H](NC(=O)/C(=N\OC(C)(C)C(=O)O)c2csc(N)n2)C(=O)N1S(=O)(=O)O [AZTREONAM] |  |  | 0.25 (≈ 0.574 µM)
6 | CO[C@H]1/C=C/O[C@@]2(C)Oc3c(C)c(O)c4c(O)c(c(/C=N/N5CCN(C)CC5)c(O)c4c3C2=O)NC(=O)/C(C)=C\C=C\[C@H](C)[C@H](O)[C@@H](C)[C@@H](O)[C@@H](C)[C@H](OC(C)=O)[C@@H]1C [RIFAMPIN] |  | 2.5 (≈ 3.04 µM) | 
